Laboratory results as given in the NIST ThermoML archive (doi:10.1016/j.jct.2013.03.012).

Conditions: for mass density: 101.33 kPa, Liquid, Levitation methods

[Ti] [titanium]
Conditions	mass density [kg/m3]
1350 K	4235
1400 K	4223
1450 K	4211
1500 K	4200
1550 K	4188
1600 K	4176
1650 K	4164
1668 K	4160
1700 K	4152

Conditions	Normal melting temperature [°C]
Crystal, Heating curve in electrostatic levitation apparatus	1668.1
